# Experimental data published in PMC8950706, “Influence of Substitutions in the Binding Motif of Proline-Rich Antimicrobial Peptide ARV-1502 on 70S Ribosome Binding and Antimicrobial Activity” (International Journal of Molecular Sciences, 2022).
# Square brackets hold non-standard residues; d marks the D form. Peptide text beside a SMILES is read from it. Ac6c = NC1(C(=O)O)CCCCC1
# Assays:
# [1] = system: E. coli BW25113 ∆sbmA ∆mdtM; format: cell-based, Escherichia coli; conditions: for Minimal Inhibitory Concentration, 25% MHB2, ∆sbmA ∆mdtM: 25% MHB2, 37 °C; for Minimal Inhibitory Concentration, 25% MHB2, ∆sbmA ∆mdtM / Minimal Inhibitory Concentration, 33% TSB, ∆sbmA ∆mdtM: 20 h, at least duplicates on two days, * once on two days, ** duplicate on one day; for Minimal Inhibitory Concentration, 33% TSB, ∆sbmA ∆mdtM: 37 °C; for Effect of the additional mdtM knockout on antibacterial activity: ∆sbmA ∆mdtM compared with ∆sbmA
# Description: MIC values were determined using a liquid broth micro dilution assay in sterile 96-well plates (polystyrene F-bottom, Greiner Bio-One GmbH) and a total volume of 100 μL per well. Aqueous peptide solutions (10 g/L) were serially twofold diluted in 25% Mueller-Hinton broth 2 (25% MBH2) or 33% tryptic soy broth (33% TSB) starting at a peptide concentration of 128 mg/L (50 μL/well). Overnight cultures of bacteria grown in 25% MHB2 (or 33% TSB) were diluted 30-fold in 25% MHB2 (or 33% TSB). After an incubation period of 4 h (37 °C, 200 rpm), cells were diluted to 1.5 × 10^7 cfu/mL, based on a McFarland test, and 50 μL were added to each well (final concentration of 7.5 × 10^6 […]). The plates were incubated (37 °C, 20 h) and the optical density was recorded at 595 nm using a microplate reader ([…]^TM, Beckmann Coulter). The MIC was defined as the lowest peptide concentration preventing visible bacterial growth.
# [2] = system: E. coli 70S ribosome; experiment: Competitive FP binding screening assay with Cf-ARV-1502 (relative FP); parameters: species or system E. coli BW25113; conditions: for Ribosome Binding (%): competitive ribosome binding against Cf-ARV-1502 (relative FP; values match 1.2 µmol/L peptide), low value = strong competition
# Description: E. coli 70S ribosomes were prepared using a previously described protocol that was slightly modified. Briefly, E. coli BW25113 was cultivated in Luria-Bertani (LB) medium and cells were harvested after reaching an optical density of ~4 at 600 nm by centrifugation (5000× g, 15 min, 4 °C, Rotor JLA 8.100, Avanti J-20 XP, Beckmann Coulter, Krefeld, Germany). The cell pellets were frozen and stored at −80 °C. Cells were resuspended in ribosome buffer (2 mL/g cells; 20 mmol/L HEPES-KOH, 6 mmol/L MgCl2, 30 mmol/L NH4Cl, 4 mmol/L 2-mercaptoethanol, pH 7.6). Lysozyme (0.25 g/L cell suspension) was added, and the mixture was incubated on ice for 30 min. Cells were disrupted using the bead mill homogenizer FastPrep-24™ 5G (40 s, 4 m/s, 6 cycles, MP Biomedicals Germany GmbH, Eschwege, Germany) and zirconia/silica beads (0.1 mm diameter). The lysate was centrifuged (1500× g, 5 min, 4 °C, Rotor S4180, Allegra 21R, Beckmann Coulter) and the supernatant was incubated with DNase (5 U/mL) on ice for 60 min. The cell debris was removed by two centrifugation steps (16,000× g, 30 min, 4 °C followed by 32,000× g, 60 min, 4 °C, Rotor JA 30.50 Ti, Avanti J-30I, Beckmann Coulter). The ribosome was pelleted by ultracentrifugation (165,000× g, 17 h, 4 °C, Rotor 70 Ti, Optima LE-80K, Beckmann Coulter), resuspended in ribosome buffer (0.1 mL/g pellet), and stored at −80 °C. The ribosome concentration was determined by recording the absorbance of RNA at 260 nm (NanoPhotometer NP80, Implen GmbH, München, Germany) assuming that 1 AU corresponds to a ribosome concentration of 28 nmol/L. The molecular weight of the E. coli 70S ribosome was assumed to be 2.3 MDa.
# E. coli 70S ribosomes and Cf-ARV-1502 were incubated with four different concentrations of unlabeled peptides chosen based on the IC50 curves of reference peptide ARV-1502. Each peptide was diluted in ribosome buffer to obtain a concentration of 4.8 µmol/L and transferred to a 384-well-plate. Peptides were then twofold serially diluted in four steps from 4.8 to 0.6 µmol/L (20 µL). The ribosome extract was diluted in ribosome buffer to reach a concentration of 2 µmol/L and 10 µL were added to each well to obtain a final ribosome concentration of 0.5 µmol/L. Plates were centrifuged (2 min, 500× g, Rotor S2096, Allegra^TM 21R, Beckmann Coulter) and incubated at 28 °C for 90 min. Cf-labeled ARV-1502 was added (10 µL; final concentration of 20 nmol/L) and the plates were again centrifuged and incubated (28 °C, 90 min). After incubation, fluorescence polarization was recorded on a […]^TM microplate reader (λex = 485 nm, λem = 535 nm).
# On each plate 12 minimum (30 µL ribosome buffer and 10 µL Cf-ARV-1502) and 12 maximum (20 µL ribosome buffer, 10 µL ribosome solution and 10 µL Cf-ARV-1502) control samples were added. Fluorescence polarization of screening samples was normalized to the fluorescence polarization of these control samples. All screening samples were measured in triplicates and the whole experiment was repeated once on another day.
# [3] = system: E. coli 70S ribosome; experiment: Competitive fluorescence polarization assay against Cf-ARV-1502 (Ki); format: binding, E. coli BW25113; conditions: 20 nmol/L Cf-ARV-1502, 0.5 µmol/L ribosome, 28 °C, 90 min + 90 min, Ki calculated from IC50; for Ki: read-out: Ki (nmol/L), competition with Cf-ARV-1502
# Description: E. coli 70S ribosomes were prepared using a previously described protocol that was slightly modified. Briefly, E. coli BW25113 was cultivated in Luria-Bertani (LB) medium and cells were harvested after reaching an optical density of ~4 at 600 nm by centrifugation (5000× g, 15 min, 4 °C, Rotor JLA 8.100, Avanti J-20 XP, Beckmann Coulter, Krefeld, Germany). The cell pellets were frozen and stored at −80 °C. Cells were resuspended in ribosome buffer (2 mL/g cells; 20 mmol/L HEPES-KOH, 6 mmol/L MgCl2, 30 mmol/L NH4Cl, 4 mmol/L 2-mercaptoethanol, pH 7.6). Lysozyme (0.25 g/L cell suspension) was added, and the mixture was incubated on ice for 30 min. Cells were disrupted using the bead mill homogenizer FastPrep-24™ 5G (40 s, 4 m/s, 6 cycles, MP Biomedicals Germany GmbH, Eschwege, Germany) and zirconia/silica beads (0.1 mm diameter). The lysate was centrifuged (1500× g, 5 min, 4 °C, Rotor S4180, Allegra 21R, Beckmann Coulter) and the supernatant was incubated with DNase (5 U/mL) on ice for 60 min.
# Dissociation and inhibitory constants were determined in black 384-well-plates (Greiner Bio-One GmbH, Frickenhausen, Germany) blocked with 0.5% (w/v) casein in phosphate buffered saline (PBS, 8.8 mmol/L Na2HPO4×12 H2O, 1.2 mmol/L KH2PO4, 0.3 mol/L NaCl, pH 7.4) containing 0.05% (w/v) Tween® 20 (PBST) overnight at 4 °C and washed three times with PBST.
# Ribosome solution was added (10 µmol/L) and the plate was incubated after centrifugation (2 min, 500× g, Rotor S2096, Allegra^TM 21R, Beckmann Coulter) at 28 °C for 90 min. Cf-labeled peptide was added (10 µL; final concentration of 20 nmol/L; final ribosome concentration of 0.5 µmol/L) and the plate was centrifuged and incubated again (90 min, 28 °C, dark). […] Kd and IC50 values were calculated by fitting the data with a variable slope parameter [y = min + (max − min)/(1 + (x/Kd) ^−Hill slope) ] using SigmaPlot 13 (Systat Software Inc., San Jose, CA, USA). The obtained IC50 values were used to calculate the Ki values.
# [4] = control without unlabeled peptide = 100%, 0.5 µmol/L ribosome, 20 nmol/L Cf-ARV-1502, triplicates, repeated once on another day
Structure (SMILES),"Minimal Inhibitory Concentration, 25% MHB2, ∆sbmA ∆mdtM [1] [µg/mL]","Minimal Inhibitory Concentration, 33% TSB, ∆sbmA ∆mdtM [1] [µg/mL]",Effect of the additional mdtM knockout on antibacterial activity [1],Ribosome Binding (%) [2] [%],"Relative FP at 1.2 µmol/L unlabeled peptide [2, 4] [%]","Relative FP at 2.4 µmol/L unlabeled peptide [2, 4] [%]",Ki [3] [nmol/L],Inhibition of Cf-ARV-1502 binding to the 70S ribosome (in words) ([2]; Figure 3: peptide concentration 1.2 µmol/L),"Ki (nmol/L), competition with Cf-ARV-1502 [3]"
CC(C)C[C@H](NC(=O)[C@H](Cc1ccc(O)cc1)NC(=O)[C@@H]1CCCN1C(=O)[C@H](CCCNC(=N)N)NC(=O)[C@@H]1CCCN1C(=O)[C@H](CCCCN)NC(=O)[C@H](CC(=O)O)NC(=O)[C@@H]1CCCN1C(=O)[C@H](CCCNC(=N)N)NC(=O)C1(N)CCCCC1)C(=O)N1CCC[C@H]1C(=O)N[C@@H](CCCNC(=N)N)C(=O)N1CCC[C@H]1C(=O)N[C@@H](CCCNC(=N)N)C(=O)N1CCC[C@H]1C(=O)N1CCC[C@H]1C(=O)N[C@@H](CCCNC(=N)N)C(=O)N1CCC[C@H]1C(=O)N[C@H](C(=O)N[C@@H](CCCNC(=N)N)C(N)=O)C(C)C [ARV-1502] (H-[Ac6c]RPDKPRPYLPRPRPPRPVR-NH2),64,128,further decreased,40.9 ± 3.9,40.9 ± 3.9,32.1 ± 1.3,135 ± 10,,
CC(C)C[C@H](NC(=O)[C@H](Cc1ccc(O)cc1)NC(=O)[C@@H]1CCCN1C(=O)[C@H](CCCNC(=N)N)NC(=O)[C@@H]1CCCN1C(=O)[C@H](CCCCN)NC(=O)[C@H](CCCCN)NC(=O)[C@@H]1CCCN1C(=O)[C@H](CCCNC(=N)N)NC(=O)C1(N)CCCCC1)C(=O)N1CCC[C@H]1C(=O)N[C@@H](CCCNC(=N)N)C(=O)N1CCC[C@H]1C(=O)N[C@@H](CCCNC(=N)N)C(=O)N1CCC[C@H]1C(=O)N1CCC[C@H]1C(=O)N[C@@H](CCCNC(=N)N)C(=O)N1CCC[C@H]1C(=O)N[C@H](C(=O)N[C@@H](CCCNC(=N)N)C(N)=O)C(C)C [Peptide 2] (H-[Ac6c]RPKKPRPYLPRPRPPRPVR-NH2; N-terminus and C-terminus assumed),,,no effect,40.3 ± 2.2,,,,did not reduce the competition with Cf-ARV-1502,did not alter the Ki value
"CC[C@H](C)[C@H](NC(=O)[C@@H](CCCNC(=N)N)NC(=O)[C@H](CCCNC(=N)N)NC(=O)[C@@H]1CCCN1C(=O)[C@@H]1CCCN1C(=O)[C@H](CCCNC(=N)N)NC(=O)[C@@H]1CCCN1C(=O)[C@H](CCCNC(=N)N)NC(=O)[C@@H]1CCCN1C(=O)[C@H](CC(C)C)NC(=O)[C@H](Cc1ccc(O)cc1)NC(=O)[C@@H]1CCCN1C(=O)[C@@H]1CCCN1C(=O)[C@H](CCCCN)NC(=O)[C@H](CC(=O)O)NC(=O)[C@@H](N)C(C)C)C(=O)N[C@@H](Cc1ccc(O)cc1)C(=O)N[C@@H](CC(N)=O)C(=O)N[C@H](CCCNC(=N)N)C(N)=O [Onc112, reference compound] (H-VDKPPYLPRPRPPR[dR]IYN[dR]-NH2; N-terminus and C-terminus assumed)",64,128,weakened the activity,32.1 ± 1.0,,,124 ± 2,,
